According to patent US9285358B2, “Vitro method for high throughput screening of genotoxic agents in eukaryotic cells” (ANTHEM BIOSCIENCES PVT LTD, priority 2011, dated 2016):
Like-named read-outs stand apart in the source and are kept apart here.

Columns and labels:
[1] = tested on: HCT116-p21RLuc-GADD153hFLuc-p53Bgal cells; assay: Anthem's Genotox assay (reporter gene induction p21-RLuc, GADD153-hFLuc, p53-Bgal); settings: for Anthem's Genotox assay: LEC in μg/ml (genotoxic lowest effective test concentration): at least one reporter induction above 1.5 fold threshold
Experimental: The assay protocol standardized by us is described here. A stock of the test compound is prepared in 2% v/v solvents (including but not limited to DMSO or PBS) and this stock is used to make serial dilutions for the assay. […] The test compound is assayed for cell viability by standard cell viability/cytotoxicity assays (for example MTT assay as shown in the graphs).
The MTT assay is performed using the MTT reagent (Sigma) dissolved in PBS (5 mg/ml). Briefly, the Genotox sensor cells are incubated with ten fold serial dilutions of the test compound in a 96-well microplate. After 24 h of incubation, 10 μl of the MTT solution is added to each well of the 96-well plate and incubated for 1 hour at 37° C. The medium is discarded (in a fume hood) and 100 μl DMSO is added to the wells. The plate is shaken for 10 min and absorbance is measured at 540 nm.
For the genotoxicity assay, 16 h prior to compound treatment, the engineered Anthem's Genotox sensor cells are seeded in 96-well microplates (10,000 cells per well). […] The test compound is added in two-fold serial dilutions and the microplate is incubated at 37 C, 5% CO2 and 95% humidity for 24 or 48 h depending on the experiment requirements.
The cells are lysed after 24 or 48 h with the 60 μl of lysis buffer per well (the lysis buffer composition has been optimized at Anthem Biosciences to be compatible with luciferase and beta galactosidase assays; 50 ml of Lysis buffer contains 7.5 ml of 1M HEPES at pH 8.0, 125 μl of Triton X 100, 50 mg of Porcine gelatin, 5 ml of glycerol and 25 μl of Antifoam). For each of the luciferase assays (Renilla and Firefly luciferase) 10 μl of the lysate is used, while 30 μl of the lysate is used for the beta galactosidase assay and total protein is estimated using the remaining 10 μl of the lysate by Bradford reagent.
The Renilla luciferase assay is performed using luciferase assay buffer (0.5 M NaCl, 0.1 M Potassium phosphate buffer pH 7.2, 1 mM Di-Sodium EDTA, 1 mg/mL porcine gelatin, 50 mM Potassium iodide) containing 1 μg/well coelentrazine (1 mg/ml stock prepared in 100% methanol). The firefly luciferase assay is performed with the same luciferase assay buffer containing 100 μM D luciferin, 150 μM ATP and 80 μM Coenzyme A. The assay plate is gently shaken for 10 minutes on a microplate shaker (to fully mix the contents of each well). Then the plate is taken to the microplate reader and the luminescence data are collected from the microplates. […] The Luminiscence data are collected with an integration time of 10 seconds and a delay of 2 seconds.
The beta galactosidase assay is carried out with Z assay buffer (50 ml buffer contains 0.4265 g of Na2HPO4, 0.275 g of NaH2PO4, 500 μl of 1M KCl, 50 μl of 1M MgSO4; for every 10 ml, 27 μl of Beta mercaptoethanol is added) and the substrate […] ONPG (1 ml of 10× ONPG stock-20 mg/ml). Once the yellow colour develops, 50 μl 1M Na2CO3 is added per well and the reading is taken at A420.
The luminescence and absorbance data are transported into Microsoft excel spreadsheet and the fold change in the reporter gene expressions is calculated by normalizing with the data from vehicle treated control wells. The graph is plotted with test compound concentrations on X axis, cell viability percentage (from MTT assay) on primary Y axis and reporter gene fold induction on the secondary Y axis. […] The genotoxicity threshold is not calculated for test concentrations that result in less than 50% cell viability. […]

[2] = tested on: HCT116-p21RLuc-GADD153hFLuc-p53Bgal cells; settings: 24 h, MA: metabolic activation using S9 fraction mix
Experimental: The luminescence and absorbance data are transported into Microsoft excel spreadsheet and the fold change in the reporter gene expressions is calculated by normalizing with the data from vehicle treated control wells. The graph is plotted with test compound concentrations on X axis, cell viability percentage (from MTT assay) on primary Y axis and reporter gene fold induction on the secondary Y axis. […] The genotoxic threshold is set at 1.5 fold change (i.e. 50% more than vehicle treated control). The genotoxic LEC is the lowest effective test concentration that produced at least one of the reporter gene inductions of more than 1.5 threshold. The genotoxicity threshold is not calculated for test concentrations that result in less than 50% cell viability. […]
The genotoxic potential of metabolites of test compounds is assessed by incubating the compound in the Anthem's Genotox sensor cells for 3 hours with S9 of Aroclor 1254-treated rats (1% mix), procured from Moltox, Cat #11-101.5. […]
10^3 cells were seeded per well in 100 μl of McCoy's media with 10% FBS was incubated overnight (37° C., 5% CO2, 100% humidity) in a 96-well plates (as two sets). […] The plate was gently shaken for 10 minutes on a microplate shaker and then taken to the microplate reader to obtain the luminescence reading. […]

[3] = assay time 24 h, no metabolic activation

SMILES	Anthem's Genotox assay: promoter(s) that was(were) induced [1]	Anthem's Genotox assay: LEC in μg/ml (genotoxic lowest effective test concentration) [1, 3]	further results
Nc1ccn([C@@H]2O[C@H](CO)[C@@H](O)[C@@H]2O)c(=O)n1 [AraC arabinoside]	p21		
O=P1(N(CCCl)CCCl)NCCCO1 (stereo not shown) [Cyclophosphamide]			Anthem's Genotox assay: LEC in μg/ml (genotoxic lowest effective test concentration) [2]: > 55.82 µg/mL; Anthem's Genotox assay: Result (assay time in h) [2]: + (positive for genotoxicity)
COc1cc([C@@H]2c3cc4c(cc3[C@@H](O[C@@H]3O[C@@H]5CO[C@@H](C)O[C@H]5[C@H](O)[C@H]3O)[C@H]3COC(=O)[C@H]23)OCO4)cc(OC)c1O [Etoposide]		6.25 µg/mL	
CC1COc2c(N3CCN(C)CC3)c(F)cc3c(=O)c(C(=O)O)cn1c23 (stereo not shown) [Ofloxacin]		750.0 µg/mL	Anthem's Genotox assay: Result (assay time in h) ([1]; assay time 24 h, no metabolic activation, positive when reporter gene induction over 1.5 fold): + (positive for genotoxicity)
O=c1c(O)c(-c2ccc(O)c(O)c2)oc2cc(O)cc(O)c12 [Querceti3n]	GADD153		
